Test results from patent US20100173888A1 (Pfizer Inc, priority 2008, published 2010).

Target: human recombinant H-PGDS (Homo sapiens, UniProt O60760)
Assay: Fluorescence intensity h-PGDS TBA enzyme assay (PGH2 depletion, MDA/TBA fluorescence)
Type: biochemical
Details: 1:175,000 human recombinant H-PGDS, 42 second reaction, 3-fold serial dilutions, highest concentration typically 1 μM
Procedure: Fluoresecence Intensity h-PGDSTBA Enzyme Assay
Prostaglandin D Synthase (PGDS) converts the substrate prostaglandin H2 (PGH2) to prostaglandin D2. The depletion of PGH2 was measured via an Fe(II) reduction of the remaining PGH2 to malondialdehyde (MDA) and 12-HHT. The enzyme assay is based on the quantitative formation of a fluorescent complex from the non-fluorescent compounds MDA and 2-thiobarbituric acid (TBA), substantially as described in U.S. patent application publication US-2004/152148 by Lombardt.
The enzyme assay (31 μls) contained 100 mM Tris base pH 8.0, 100 μM MgCl2, 0.1 mg/ml IgG Rabbit serum, 5.0 μM PGH2 (Cayman; ethanol solution, #17020), 2.5 mM L-Glutathione (Sigma; reduced form. #G4251), 1:175,000 human recombinant H-PGDS (from 1 mg/ml), 0.5% DMSO and inhibitor (varying concentration). Three μls of diluted inhibitor (dissolved in DMSO) was plated into a 384-well assay plate followed by a 25 μl addition of an enzyme solution containing h-PGDS, Tris, MgCl2, IgG and L-Glutathione. After preincubation of inhibitor and enzyme solution for 10 minutes at room temperature, the reaction was initiated with a 3 μl addition of substrate solution in 10 mM HCl. The reaction was terminated after 42 second by the addition (3 μl) of stop buffer containing FeCl2 and citric acid. After addition of 45.5 μls of TBA plates were heated for one hour in a 70° C. oven. Plates were cooled at room temperature overnight and read on a plate reader the next day with excitation @ 530 nm and emission @ 565 nm.
IC50' s of inhibitors were calculated with a 4-parameter fit using 11 inhibitor concentrations in duplicate with 3-fold serial dilutions. Controls on each plate included no inhibitor (zero % effect) and an inhibitor 10-fold in excess of its' IC50 (100% effect). The highest inhibitor concentration tested was typically 1 μM.

Chain of human recombinant H-PGDS (O60760 whole entry): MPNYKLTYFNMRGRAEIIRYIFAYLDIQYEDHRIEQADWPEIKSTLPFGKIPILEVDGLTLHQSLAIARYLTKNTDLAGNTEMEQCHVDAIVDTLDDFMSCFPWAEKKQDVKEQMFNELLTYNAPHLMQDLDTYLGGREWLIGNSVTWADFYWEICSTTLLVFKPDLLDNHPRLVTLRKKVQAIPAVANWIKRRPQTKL

| IC50 [nM] | SMILES |
| --- | --- |
| 9.7 | C[C@@H](N)C(=O)N[C@H]1CC[C@H](NC(=O)c2ccc(-c3cccc(F)c3)nc2)CC1 [Example 113Q, N-[trans-4-(D-alanylamino)cyclohexyl]-6-(3-fluorophenyl)nicotinamide] |
| 13.8 | C[C@H](N)C(=O)N[C@H]1CC[C@H](NC(=O)c2ccc(-c3cccc(F)c3)nc2)CC1 [Example 113R, N-[trans-4-(L-alanylamino)cyclohexyl]-6-(3-fluorophenyl)nicotinamide] |
| 4.41 | O=C(N[C@H]1CC[C@H](CO)CC1)c1cnc(-c2cccc(F)c2)c(Cl)c1 [Example 114, 5-Chloro-6-(3-fluorophenyl)-N-[trans-4-(hydroxymethyl)cyclohexyl]nicotinamide] |
| 1.28 | O=C(NC1CCC(F)(F)CC1)c1ccc(-c2cccc(F)c2)nc1 [Example 119, N-(4,4-Difluorocyclohexyl)-6-(3-fluorophenyl)nicotinamide] |
| 1.77 | O=C(NC1CCCc2ccccc21)c1ccc(-c2ccccc2)nc1 (stereo not drawn) [Example 120, 6-Phenyl-N-(1,2,3,4-tetrahydronaphthalen-1-yl)nicotinamide] |
| 88 | COc1cccc(-c2ccc(C(=O)NC3CCCc4ccccc43)cn2)c1 (stereo not drawn) [Example 121, 6-(3-Methoxyphenyl)-N-(1,2,3,4-tetrahydronaphthalen-1-yl)nicotinamide] |
| 4.16 | O=C(NC1CCCc2ccccc21)c1ccc(-c2cccc(F)c2)nc1 (stereo not drawn) [Example 122, 6-(3-Fluorophenyl)-N-(1,2,3,4-tetrahydronaphthalen-1-yl)nicotinamide] |
| 30 | O=C(NC1CCCc2ccccc21)c1ccc(-c2ccc(F)cc2)nc1 (stereo not drawn) [Example 123, 6-(4-Fluorophenyl)-N-(1,2,3,4-tetrahydronaphthalen-1-yl)nicotinamide] |
| 22.7 | O=C(NC1CCCc2ccccc21)c1ccc(-c2cc(F)cc(F)c2)nc1 (stereo not drawn) [Example 124, 6-(3,5-Difluorophenyl)-N-(1,2,3,4-tetrahydronaphthalen-1-yl)nicotinamide] |
| 6.66 | O=C(NC12CC(C1)C2)c1ccc(-c2cccc(F)c2)nc1 [Example 125, N-Bicyclo[1.1.1]pent-1-yl-6-(3-fluorophenyl)nicotinamide] |
| 194 | CC(C)n1ncc2c1CCCC2NC(=O)c1ccc(-c2cccc(F)c2)nc1 (stereo not drawn) [Example 129, 6-(3-Fluorophenyl)-N-(1-isopropyl-4,5,6,7-tetrahydro-1H-indazol-4-yl)nicotinamide] |
| 52.3 | O=C(N[C@@H]1CC[C@@H](O)C1)c1ccc(-c2cccc(F)c2)nc1 [Example 130A, 6-(3-fluorophenyl)-N-[(1R,3R)-3-hydroxycyclopentyl]nicotinamide] |
| 16.4 | N[C@H]1CC[C@H](NC(=O)c2ccc(-c3cccc(F)c3)nc2)CC1 [Example 142B, N-(trans-4-Aminocyclohexyl)-6-(3-fluorophenyl)nicotinamide] |
| 7.2 | CC(C)(O)C(=O)N[C@H]1CC[C@H](NC(=O)c2ccc(-c3cccc(F)c3)nc2)CC1 [Example 143, 6-(3-Fluorophenyl)-N-{trans-4-[(2-hydroxy-2-methylpropanoyl)amino]cyclohexyl}nicotinamide] |
| 7.5 | C[C@H](O)C(=O)N[C@H]1CC[C@H](NC(=O)c2ccc(-c3cccc(F)c3)nc2)CC1 [Example 144, 6-(3-Fluorophenyl)-N-(trans-4-{[(2S)-2-hydroxypropanoyl]amino}cyclohexyl)nicotinamide] |
| 11.6 | CN(C)CC(=O)N[C@H]1CC[C@H](NC(=O)c2ccc(-c3cccc(F)c3)nc2)CC1 [Example 145, N-{trans-4-[(N,N-Dimethylglycyl)amino]cyclohexyl}-6-(3-fluorophenyl)nicotinamide] |
| 21 | NCC(=O)N[C@H]1CC[C@H](NC(=O)c2ccc(-c3cccc(F)c3)nc2)CC1 [Example 146, 6-(3-Fluorophenyl)-N-[trans-4-(glycylamino)cyclohexyl]nicotinamide] |
| 5.7 | CC(=O)NC(C)[C@H]1CC[C@H](NC(=O)c2ccc(-c3cccc(F)c3)nc2)CC1 (stereo partly drawn) [Example 147, N-[trans-4-(1-Acetamidoethyl]cyclohexyl]-6-(3-fluorophenyl)nicotinamide] |
